The test system of this test is CEM cells HIV-1 protection, formazan growth assay. The test is described as follows: NCI AIDS Antiviral Assay. The note with it: for IC50: measured here: growth of uninfected CEM cells. In a few lines:
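Human CEM cells, uninfected and HIV-1-infected, received five drug concentrations, and growth was read by soluble formazan assay. Compounds giving at least 50% protection were retested; reproducible 100% protection defined confirmed active.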

“And” between values parts separate entries of the source, which are not always exact repeats. Identical values can stand only once. The source made the active and inactive calls.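 The calls were made as follows: active = compounds giving half or more protection of infected cells from virus-caused growth loss, again on retest; inactive = the rest.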 Where a SMILES comes first, the peptide text is derived from it. [ ]: non-standard residue; d: D form. The star is where a group is joined. NMeF = CN[CH](Cc1ccccc1)C(=O)O; NMeV = CN[CH](C(=O)O)C(C)C; Boc = CC(C)(C)OC(=O)*; OBn = c1ccc(CO*)cc1

Turning to `O=C(/C(=C/c1ccccc1)c1ccccc1)N1c2ccccc2CC1c1c[nH]c2ccccc12` (centres undefined), the EC50 was 0.38 µM and the IC50 was determined as 8.51 µM.
Taken in the same sequence, the figures for `Cc1cn(C2CCC(CO)(CO)CC2O)c(=O)[nH]c1=O` (centres undefined) were over 871 µM and over 871 µM.
Taken in the same sequence, the figures for `O=C(/C=C(\O)C(=O)O)/C=C(\O)c1ccccc1Cl` were 389 µM and 589 µM.
For `CCOC(=O)C[C@@H](C)[C@]1(C(=O)OC)CCCC1=O` the same measures were over 708 µM and over 708 µM.
Turning to `CCOC(=O)NC1C2CC(=O)C(O2)C1OCc1ccccc1` (centres undefined), the EC50 is over 309 µM and the IC50 turned out to be 295 µM.
As for `COC(=O)C(Cc1ccc2c(c1)CCC2)Cc1ccc2c(c1)CCC2`, the EC50 is over 200 µM and the half-inhibitory concentration (IC50) turned out to be 112 µM.
For the compound `CC(C)C1CC[C@@H](C)C[C@@]1(O)CC(N)=O` (some centres undefined), the outcome was inactive.
Take `O=C(Nc1ccc(C(F)(F)F)cc1[N+](=O)[O-])C(=O)Nn1c(=S)[nH]c2ccccc2c1=O`: the EC50 is over 79.4 µM and the IC50 was over 79.4 µM.
On to `CCOC(=O)C1CSCCSC1`, for which the EC50 is over 174 µM and the IC50 is over 174 µM.
Consider `OCCC(Sc1ccccc1)Sc1ccccc1`, for which the outcome was inactive.
Turning to `C/C(=C/CNc1ncnc2c1ncn2CCC#N)CO`, the EC50 was over 200 µM and the IC50 was over 200 µM.
For `CC(=O)c1cc(-c2ccccn2)c(=O)n2ccccc12`, the EC50 is over 200 µM and the IC50 was determined as 112 µM.
For `CN(C)CCS(=O)(=O)O` the same measures were over 200 µM and over 200 µM.
Taken in the same sequence, the figures for `OCC1OC(c2ccccc2)CC1O` (centres undefined) were over 200 µM and over 200 µM.
In the case of `C=C1CN(S(=O)(=O)c2ccc(C)cc2)CCCN(Cc2ccccc2)CCN(S(=O)(=O)c2ccc(C)cc2)C1`, the EC50 is over 200 µM and the IC50 came out at 155 µM.
On to `CC(C)C(NC(=O)OC(C)(C)C)C(=O)N(C)C(Cc1ccccc1)C(=O)N(C)C(C(=O)OCc1ccccc1)C(C)C` (stereo not drawn) (Boc-Val-[NMeF]-[NMeV]-OBn; configuration not given here), for which the EC50 was over 200 µM; the IC50 was 81.3 µM and 110 µM.
For `CC(C)(C)CP(=S)(CC(C)(C)C)CC(C)(C)C`, the EC50 is over 117 µM and the IC50 was over 117 µM.
For `CC(=O)NC(CCC(=O)c1ccc(Oc2ccccc2)cc1)C(=O)O` (centres undefined), the EC50 is over 200 µM and the IC50 is over 200 µM.
Take `C=CCc1cccc2cc(C(=O)Nc3nc(C45CC6CC(CC(C6)C4)C5)cs3)c(=O)oc12`: the EC50 was over 100 µM and the IC50 was over 100 µM.
On to `O=C1NS(=O)(=O)c2ccccc21.[Cu+2]`, for which the EC50 was over 1150 µM and the IC50 amounted to 58.9 µM.
For `O=c1nc(Nc2cccc(Cl)c2)oc2cc(Cl)oc(=O)c12` the same measures were over 79.4 µM and 11.5 µM.
In the case of `Cc1ccc(S(=O)(=O)N2CC3OC(C)(C)OC3C2CO)cc1` (centres undefined), the result was inactive.
Consider `CN(NC1=NCCO1)c1ccc2ccccc2c1`, for which the EC50 was over 200 µM and the IC50 came to 28.8 µM.
Taken in the same sequence, the figures for `COC(=O)/C(=C\c1ccc(N(CCC#N)CCC#N)cc1)NC(=O)c1cc([N+](=O)[O-])ccc1Cl` were over 74.1 µM and over 74.1 µM.
For `C=C1CC2(CCS(=O)(=O)c3ccccc32)OC1=O` (centres undefined) the same measures were over 355 µM and 1.51 µM.
On to `COc1cccc(CN2CC(C)N(N=Cc3c4c(O)c5c(O)c(C)c6c(c5c3O)C(=O)C(C)(O/C=C/C(OC)C(C)C(OC(C)=O)C(C)C(O)C(C)C(O)C(C)/C=C/C=C(\C)C(=O)N4)O6)C(C)C2)c1` (centres undefined), for which the EC50 was over 200 µM and the IC50 is 7.24 µM.
On to `CCc1cccc(C(=O)NCCN(C)C)c1[N+](=O)[O-]`, for which the EC50 is over 200 µM and the IC50 was over 200 µM.
Regarding `COc1cc(SSc2ccc(N)c(OC)c2)ccc1N`, the EC50 was over 200 µM and the IC50 came to 26.3 µM.
Taken in the same sequence, the figures for `Oc1ccccc1-c1n[nH]c(-c2ccccc2O)n1` were over 200 µM and 1.38 µM.
Turning to `Nc1ccc(-c2nc3sc(-c4ccc(N)cc4)nc3s2)cc1`, the EC50 was over 16.2 µM and the IC50 was over 16.2 µM.
For `COc1cc(N=Nc2ccc(S(=O)(=O)O)cc2)c(C)cc1N=Nc1cc(S(=O)(=O)O)c(NC(=O)c2ccc(N)cc2)cc1NC(C)=O`, the half-maximal effective concentration (EC50) was 13.2 µM and the IC50 was over 200 µM.
Taken in the same sequence, the figures for `O=C(O)CCSSCCCS(=O)O` were 105 µM and 191 µM.
For the compound `CC(C)CC1N=C(OCc2ccccc2)OC1=O` (centres undefined), the EC50 was over 200 µM and the IC50 was over 200 µM.
In the case of `N#CC(C(=O)C(N)=O)c1ccccc1Cl` (centres undefined), the EC50 is over 427 µM and the IC50 was over 427 µM.
Consider `CC12CCC(=O)[C@@]1(C)CCCC2=O` (some centres undefined), for which the outcome was inactive.
As to `COc1ccc2[nH]c3c(C)cc([N+](=O)[O-])c(C)c3c2c1`, the EC50 is over 200 µM and the IC50 was found to be 10.7 µM.
Consider `O=C1c2cccc3cccc(c23)C(=O)N1CCN1C(=O)c2cccc3cccc(c23)C1=O`, for which the EC50 is over 200 µM and the IC50 worked out at 30.2 µM.
`C[C@H](CCCN1CCCCC1)[C@H]1CC[C@H]2[C@@H]3CC[C@@H]4C[C@H](O)CC[C@]4(C)[C@H]3CC[C@]12C`: the EC50 is over 50.1 µM and the IC50 turned out to be 1.82 µM.
For `O=C(OCC(Cl)(Cl)Cl)N1CC[C@@H](C2CCCCC2)C1` the same measures were over 200 µM and 52.5 µM.
Take `C/C=C\CCC1CCCCN(C(=O)OC(C)(C)C)C1OCC` (centres undefined): the EC50 was over 158 µM and the IC50 is over 158 µM.
For `COc1ccc(-c2n[nH]c3c2CCCc2ccccc2-3)cc1`, the EC50 is over 43.7 µM and the IC50 was 18.2 µM.
For the compound `CC1(C)OCC2OC3([C@H](O)CCO)OC(C)(C)OC3C2O1` (some centres undefined), the EC50 was over 200 µM and the IC50 was over 200 µM.
For the compound `O=C1c2cscc2C(=O)c2c(Cl)sc(Cl)c21`, the EC50 is over 0.2 µM and the IC50 was over 0.2 µM.
`O=C(CSc1nnc(-c2ccc(Cl)cc2)s1)Nc1nccs1`: the EC50 was over 200 µM and the half-inhibitory concentration (IC50) was over 200 µM.
With `CC1(C)C2CCC(C2)C1/C=C1/SC(=S)NC1=O` (centres undefined), the EC50 was over 200 µM and the IC50 turned out to be 10 µM.
`Cc1ccc(NCCNCCO)c2c(=O)c3ccccc3sc12`: the outcome was inactive.
Regarding `CC12CC(Sc3ccccc3N1)c1ccccc1O2` (centres undefined), the EC50 was over 132 µM and the IC50 came out at 21.4 µM.
`CC(=O)N(C(=O)CC(=O)NNCc1ccccc1Cl)c1ccc(Cl)cc1`: the EC50 is over 200 µM and the IC50 is over 200 µM.
With `NCCCCC(=O)NC(CCCCNC(=O)OCc1ccccc1)C(=O)NCCCCC(=O)NC(CCCCNC(=O)OCc1ccccc1)C(=O)NCCCCC(=O)NC(CCCCNC(=O)OCc1ccccc1)C(=O)NCCCCC(=O)NC(CCCCNC(=O)OCc1ccccc1)C(=O)NCCCCC(=O)NC(CCCCNC(=O)OCc1ccccc1)C(=O)O` (centres undefined), the EC50 was over 14.1 µM and the IC50 was 13.8 µM.
On to `O=C(O)c1ccc2c(c1)CC1(C2)Cc2ccccc2C1=O` (centres undefined), for which the EC50 was over 200 µM and the half-maximal inhibitory concentration (IC50) is over 200 µM.
Take `CC(=O)NC(CCCNC(=O)NCCCl)C(=O)NCc1ccccc1` (centres undefined): the EC50 is over 676 µM and the IC50 is over 676 µM.
In the case of `C/C(O)=C(\C=N/C(=S)Nc1ccccc1)C(=O)Nc1ccccc1`, the EC50 is over 200 µM and the IC50 is over 200 µM.
Take `CC(=O)C1C(=O)C(=O)N(CCN2C(=O)C(=O)C(C(C)=O)C2=O)C1=O` (centres undefined): the EC50 was over 11.2 µM and the IC50 was over 11.2 µM.
For `O=P1(O)Cc2ccccc2-c2ccccc21`, the EC50 is over 200 µM and the IC50 is over 200 µM.
As to `NC(N)=NC(N)=Nc1ccc(Sc2ccc(N=C(N)N=C(N)N)cc2)cc1`, the EC50 was over 200 µM.
For the compound `C1CSCCSCCCSC2CCCCC2SC1` (centres undefined), the EC50 is over 22.4 µM and the IC50 was over 22.4 µM.
Regarding `CCC(=O)Nc1nc2c(ncn2C2OC(COC(=O)CC)C(OC(=O)CC)C2OC(=O)CC)c(=O)[nH]1` (centres undefined), the EC50 is over 355 µM and the IC50 amounted to 309 µM.
For the compound `CCC[CH2][Sn]1([CH2]CCC)[O]N=C(c2ccccc2)C(c2ccccc2)[O]1` (centres undefined), the EC50 is over 19.5 µM and the IC50 turned out to be 2.45 µM.
For the compound `CCC(C)C(N)C(=O)NCC(=O)NC(CCCN=C(N)N)C(=O)NC(CC(N)=O)C(=O)NC(CC(C)C)C(=O)NC(CC(C)C)C(=O)NC(C(=O)NC(CCC(N)=O)C(=O)NC(C(=O)NCC(=O)O)C(C)CC)C(C)O` (centres undefined) (H-IGRNLLTQIG-OH; configuration not given here), the outcome was inactive.
As for `CCOC(=O)C1C(c2ccccc2)C(C(=O)OCC)C(O)(C(F)(F)F)OC1(O)C(F)(F)F` (centres undefined), the outcome was inactive.
Consider `CCOC(=O)n1c(=O)nc2c3c(ncn21)Oc1c(c(-c2ccccc2)nn1-c1ccccc1)C3c1ccc(Cl)cc1` (centres undefined), for which the EC50 was over 200 µM and the IC50 turned out to be 2.29 µM.
With `O=[N+]([O-])c1ccc(Cl)c(SSc2cc([N+](=O)[O-])ccc2Cl)c1`, the EC50 was over 39.8 µM and the IC50 was 14.1 µM.
Consider `C=C1C(=O)O[C@@H]2[C@H]1CC[C@H](C)[C@@H]1CCC(=O)[C@@]21C`, for which the EC50 is over 200 µM and the 50% inhibitory concentration (IC50) is 3.39 µM.
Taken in the same sequence, the figures for `CN1C=COC1N=C1CCCCC1` (centres undefined) were over 200 µM and over 200 µM.
For `Nc1nc(N)c(N=O)c(Nc2cccc(Br)c2)n1` the same measures were over 200 µM and 8.51 µM.
Taken in the same sequence, the figures for `COc1ccc2c(c1)OC[C@@H]1c3cc(OC)c(OCc4ccccc4)cc3O[C@H]21` were 6.61 µM and over 100 µM.
For the compound `CCN(CC)Cc1c2c(O)c3c(O)c(C)c4c(c3c1O)C(=O)C(C)(O/C=C/C(OC)C(C)C(OC(C)=O)C(C)C(O)C(C)C(O)C(C)/C=C/C=C(\C)C(=O)N2)O4` (centres undefined), the EC50 was over 200 µM and the IC50 turned out to be 33.1 µM.
For the compound `CN1C(=O)c2ccccc2C2(O)c3ccccc3-c3ccccc3C12O` (centres undefined), the EC50 is over 20 µM and the IC50 worked out at 4.47 µM.
As to `COc1cc2c3c(c1OCc1ccccc1)NCCC3NCC2` (centres undefined), the result was inactive.

The values are drawn from PubChem BioAssay AID179 (DTP/NCI, 2004).
